In ChEMBL document CHEMBL1137293, “Discovery of oxadiazoyl tertiary carbinamine inhibitors of beta-secretase (BACE-1)” (J Med Chem, 2006):

Molecular target: Beta-secretase 1 (Homo sapiens, UniProt P56817)
Assay: Inhibition of BACE1

Sequence of Beta-secretase 1 (P56817 whole entry): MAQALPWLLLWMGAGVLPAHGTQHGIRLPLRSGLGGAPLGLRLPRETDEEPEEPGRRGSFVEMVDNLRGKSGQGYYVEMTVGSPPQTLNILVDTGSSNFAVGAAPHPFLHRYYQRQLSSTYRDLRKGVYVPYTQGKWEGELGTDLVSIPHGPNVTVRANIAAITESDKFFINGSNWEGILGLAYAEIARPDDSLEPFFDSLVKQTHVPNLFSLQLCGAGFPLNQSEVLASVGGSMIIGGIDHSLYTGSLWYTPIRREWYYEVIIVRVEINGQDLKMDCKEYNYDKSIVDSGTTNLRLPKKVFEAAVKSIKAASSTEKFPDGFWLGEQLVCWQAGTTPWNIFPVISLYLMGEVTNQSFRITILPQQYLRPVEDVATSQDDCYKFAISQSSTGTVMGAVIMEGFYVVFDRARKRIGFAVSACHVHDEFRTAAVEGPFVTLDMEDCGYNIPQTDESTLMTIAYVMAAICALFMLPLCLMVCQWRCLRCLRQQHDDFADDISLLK

Point of comparison: C[C@@H](NC(=O)c1cc(COC(=O)[C@](C)(N)Cc2ccccc2)cc(N(C)S(C)(=O)=O)c1)c1ccc(F)cc1, IC50 27 nM. Against it:
- C[C@@H](NC(=O)c1cc(COC[C@@](N)(CO)Cc2ccccc2)cc(N(C)S(C)(=O)=O)c1)c1ccc(F)cc1 — 51-fold higher, 1370 nM
- C[C@@H](NC(=O)c1cc(COC[C@](C)(N)Cc2ccccc2)cc(N(C)S(C)(=O)=O)c1)c1ccc(F)cc1 — 16-fold higher, 430 nM
- C[C@@H](NC(=O)c1cc(C2=NC(CO)(Cc3ccccc3)CO2)cc(N(C)S(C)(=O)=O)c1)c1ccc(F)cc1 (stereo not given in full) — 460-fold higher, 12500 nM
- C[C@@H](NC(=O)c1cc(C(=O)NC(CO)(CO)Cc2ccccc2)cc(N(C)S(C)(=O)=O)c1)c1ccc(F)cc1 — 100-fold higher, 2700 nM
